One block for each compound: values may come before it.
Legend:
D(2) dopamine receptor = D(2) dopamine receptor (Homo sapiens, UniProt P14416); experiment: Binding affinity to D2R receptor (unknown origin)
[1] = target: T1, Sigma non-opioid intracellular receptor 1 (Homo sapiens, UniProt Q99720); experiment: Binding affinity to sigma 1 receptor (unknown origin)
5637 = experiment: Antiproliferative activity against human 5637 cells assessed as reduction in cell viability; assay type: functional, cell-based
A-427 = experiment: Antiproliferative activity against human A-427 cells assessed as reduction in cell viability; assay type: functional, cell-based
[2] = target: T2, Sigma intracellular receptor 2 (Homo sapiens, UniProt Q5BJF2); experiment: Binding affinity to sigma 2 receptor (unknown origin) expressed in human RT-4 cells; assay type: cell-based
T2 sequence (Q5BJF2 whole entry): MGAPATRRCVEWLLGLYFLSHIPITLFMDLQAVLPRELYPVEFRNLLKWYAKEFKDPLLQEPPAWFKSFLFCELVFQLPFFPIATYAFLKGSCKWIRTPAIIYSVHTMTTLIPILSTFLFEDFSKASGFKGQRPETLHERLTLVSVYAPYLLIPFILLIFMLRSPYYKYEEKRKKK

[3] = target: T3, Sigma intracellular receptor 2 (Rattus norvegicus, UniProt Q5U3Y7); experiment: Binding affinity to sigma 2 receptor expressed in rat liver; assay type: tissue-based
T3 sequence (Q5U3Y7 whole entry): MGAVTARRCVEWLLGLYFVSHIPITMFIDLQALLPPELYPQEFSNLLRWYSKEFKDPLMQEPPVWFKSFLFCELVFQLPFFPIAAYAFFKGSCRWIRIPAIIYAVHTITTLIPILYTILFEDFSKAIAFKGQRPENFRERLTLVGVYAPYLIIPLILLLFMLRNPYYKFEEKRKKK

MCF7 [4] = experiment: Antiproliferative activity against human MCF7 cells assessed as reduction in cell viability; assay type: functional, cell-based
[5] = target: T2, Sigma intracellular receptor 2; experiment: Binding affinity to human sigma 2 receptor
[6] = Binding affinity to human sigma 1 receptor
[7] = target: T1, Sigma non-opioid intracellular receptor 1; experiment: Binding affinity to human sigma 1 receptor
[8] = target: T3, Sigma intracellular receptor 2; experiment: Displacement of [3H]DTG from sigma 2 receptor expressed in rat liver membranes assessed as inhibition constant in presence of (+)-pentazocine by radioligand binding assay; assay type: cell membranes, Membrane
[9] = target: T4, Sigma non-opioid intracellular receptor 1 (Cavia porcellus, UniProt Q60492); experiment: Displacement of [3H]pentazocine from sigma 1 receptor expressed in guinea pig brain membranes assessed as inhibition constant by radioligand binding assay; assay type: cell membranes, Membrane
T4 sequence (Q60492 whole entry): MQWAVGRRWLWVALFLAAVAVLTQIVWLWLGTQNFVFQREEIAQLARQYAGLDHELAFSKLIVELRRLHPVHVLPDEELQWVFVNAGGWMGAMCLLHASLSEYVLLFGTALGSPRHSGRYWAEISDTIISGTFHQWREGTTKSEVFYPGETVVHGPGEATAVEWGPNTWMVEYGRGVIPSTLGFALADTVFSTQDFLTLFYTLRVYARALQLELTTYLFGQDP

SK-MEL-28 [10] = experiment: Anti-proliferative against human SK-MEL-28 cells assessed as reduction in cell viability incubated for 24 hrs by MTT assay; assay type: functional, cell-based; settings: SK-MEL-28, 24 h
[11] = target: T3, Sigma intracellular receptor 2; experiment: Displacement of [3H]DTG from sigma 2 receptor expressed in rat liver membranes assessed as inhibition constant incubated for 120 mins in presence of (+)-SKF10047 by radioligand binding assay; assay type: cell membranes, Membrane
[12] = target: T4, Sigma non-opioid intracellular receptor 1; experiment: Displacement of [3H]pentazocine from sigma 1 receptor expressed in guinea pig brain membranes assessed as inhibition constant incubated for 150 mins by radioligand binding assay; assay type: cell membranes, Membrane
SK-MEL-28 [13] = experiment: Anti-proliferative against human SK-MEL-28 cells assessed as reduction in cell viability incubated for 48 hrs by MTT assay; assay type: functional, cell-based; settings: SK-MEL-28, 48 h
[14] = target: T1, Sigma non-opioid intracellular receptor 1; experiment: Displacement of [H3]DTG from sigma 1 receptor (unknown origin) by competition binding assay
[15] = target: T2, Sigma intracellular receptor 2; experiment: Displacement of [H3]DTG from sigma 2 receptor (unknown origin) by competition binding assay
RPMI-8226 [16] = experiment: Anti-proliferative against human RPMI-8226 cells assessed as reduction in cell viability at 40 uM incubated for 24 hrs by MTT assay; assay type: functional
[17] = Anti-proliferative against human U-87 MG cells assessed as reduction in cell viability at 40 uM incubated for 24 hrs by MTT assay; assay type: functional, U-87MG ATCC
[18] = target: T5, 5-hydroxytryptamine receptor 1A (Homo sapiens, UniProt P08908); experiment: Binding affinity to 5-HT1A receptor (unknown origin) by […]
T5 sequence (P08908 whole entry): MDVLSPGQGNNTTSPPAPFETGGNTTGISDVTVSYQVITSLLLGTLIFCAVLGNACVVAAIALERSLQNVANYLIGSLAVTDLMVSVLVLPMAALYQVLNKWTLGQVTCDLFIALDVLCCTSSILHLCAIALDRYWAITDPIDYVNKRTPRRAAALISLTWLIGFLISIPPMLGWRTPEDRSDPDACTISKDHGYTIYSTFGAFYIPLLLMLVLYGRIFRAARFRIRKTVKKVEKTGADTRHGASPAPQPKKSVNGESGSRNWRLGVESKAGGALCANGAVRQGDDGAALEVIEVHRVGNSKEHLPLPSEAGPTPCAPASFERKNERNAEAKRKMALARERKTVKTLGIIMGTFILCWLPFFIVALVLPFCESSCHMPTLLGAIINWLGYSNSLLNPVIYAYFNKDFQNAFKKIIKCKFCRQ

[19] = Anti-proliferative against human U-87 MG cells assessed as reduction in cell viability incubated for 72 hrs by MTT assay; assay type: functional, cell-based, U-87MG ATCC
[20] = Anti-proliferative against human U-87 MG cells assessed as reduction in cell viability incubated for 48 hrs by MTT assay; assay type: functional, cell-based, U-87MG ATCC
[21] = Anti-proliferative against human U-87 MG cells assessed as reduction in cell viability incubated for 24 hrs by MTT assay; assay type: functional, cell-based, U-87MG ATCC
[22] = target: T2, Sigma intracellular receptor 2; experiment: Binding affinity to sigma 2 receptor (unknown origin)
[23] = target: T4, Sigma non-opioid intracellular receptor 1; experiment: Binding affinity to sigma 1 receptor expressed in guinea pig brain; assay type: tissue-based
RPMI-8226 [24] = experiment: Induction of apoptosis in human RPMI-8226 cells assessed as total apoptotic cells incubated for 48 hrs by annexin-V/propidium iodide staining based flow cytometry; assay type: functional
RPMI-8226 [25] = experiment: Antiproliferative activity against human RPMI-8226 cells assessed as reduction in cell viability; assay type: functional, cell-based
[26] = target: T1, Sigma non-opioid intracellular receptor 1; experiment: Binding affinity to sigma 1 receptor (unknown origin) expressed in human RPMI-8226 cells; assay type: cell-based
MCF7 [27] = experiment: Antiproliferative activity against human MCF7 cells assessed as reduction in cell proliferation at 100 uM incubated for 48 hrs by MTT assay; assay type: functional; design: scale not given: the % may be the effect or the level left
MDA-MB-231 [28] = experiment: Anti-invasive activity against human MDA-MB-231 cells assessed as decrease in cell invasion at 10 uM incubated for 24 hrs by 3D spheroid invasion assay; assay type: functional; design: scale not given: the % may be the effect or the level left
MDA-MB-231 [29] = experiment: Anti-migratory activity against human MDA-MB-231 cells assessed as reduction in cell migration at 10 uM and measured after 12 hrs by wound healing assay; assay type: functional; design: scale not given: the % may be the effect or the level left
PC-3 = experiment: Antiproliferative activity against human PC-3 cells assessed as reduction in cell viability incubated for 48 hrs by MTT assay; assay type: functional, cell-based; settings: PC-3, 48 h
MDCK-MDR1 [30] = experiment: Anticancer against dog MDCK-MDR1 cells assessed as reduction in cell viability at 30 uM incubated for 48 hrs in presence of doxorubicin by MTT assay; assay type: functional, Canis lupus familiaris
MDCK-MDR1 [31] = experiment: Anticancer against dog MDCK-MDR1 cells assessed as reduction in cell viability at 50 uM incubated for 48 hrs in presence of doxorubicin by MTT assay; assay type: functional, Canis lupus familiaris
SK-N-SH = experiment: Antiproliferative activity against human SK-N-SH cells assessed as reduction in cell viability incubated for 48 hrs by MTT assay; assay type: functional, cell-based
[32] = target: ATP-dependent translocase ABCB1 (Homo sapiens, UniProt P08183); experiment: Inhibition of P-gp transporter (unknown origin) expressed in dog MDCK-MDR1 assessed as inhibition of fluorescent Calcein-AM transport by fluorescence based assay; assay type: cell-based
ATP-dependent translocase ABCB1, sequence (P08183 whole entry): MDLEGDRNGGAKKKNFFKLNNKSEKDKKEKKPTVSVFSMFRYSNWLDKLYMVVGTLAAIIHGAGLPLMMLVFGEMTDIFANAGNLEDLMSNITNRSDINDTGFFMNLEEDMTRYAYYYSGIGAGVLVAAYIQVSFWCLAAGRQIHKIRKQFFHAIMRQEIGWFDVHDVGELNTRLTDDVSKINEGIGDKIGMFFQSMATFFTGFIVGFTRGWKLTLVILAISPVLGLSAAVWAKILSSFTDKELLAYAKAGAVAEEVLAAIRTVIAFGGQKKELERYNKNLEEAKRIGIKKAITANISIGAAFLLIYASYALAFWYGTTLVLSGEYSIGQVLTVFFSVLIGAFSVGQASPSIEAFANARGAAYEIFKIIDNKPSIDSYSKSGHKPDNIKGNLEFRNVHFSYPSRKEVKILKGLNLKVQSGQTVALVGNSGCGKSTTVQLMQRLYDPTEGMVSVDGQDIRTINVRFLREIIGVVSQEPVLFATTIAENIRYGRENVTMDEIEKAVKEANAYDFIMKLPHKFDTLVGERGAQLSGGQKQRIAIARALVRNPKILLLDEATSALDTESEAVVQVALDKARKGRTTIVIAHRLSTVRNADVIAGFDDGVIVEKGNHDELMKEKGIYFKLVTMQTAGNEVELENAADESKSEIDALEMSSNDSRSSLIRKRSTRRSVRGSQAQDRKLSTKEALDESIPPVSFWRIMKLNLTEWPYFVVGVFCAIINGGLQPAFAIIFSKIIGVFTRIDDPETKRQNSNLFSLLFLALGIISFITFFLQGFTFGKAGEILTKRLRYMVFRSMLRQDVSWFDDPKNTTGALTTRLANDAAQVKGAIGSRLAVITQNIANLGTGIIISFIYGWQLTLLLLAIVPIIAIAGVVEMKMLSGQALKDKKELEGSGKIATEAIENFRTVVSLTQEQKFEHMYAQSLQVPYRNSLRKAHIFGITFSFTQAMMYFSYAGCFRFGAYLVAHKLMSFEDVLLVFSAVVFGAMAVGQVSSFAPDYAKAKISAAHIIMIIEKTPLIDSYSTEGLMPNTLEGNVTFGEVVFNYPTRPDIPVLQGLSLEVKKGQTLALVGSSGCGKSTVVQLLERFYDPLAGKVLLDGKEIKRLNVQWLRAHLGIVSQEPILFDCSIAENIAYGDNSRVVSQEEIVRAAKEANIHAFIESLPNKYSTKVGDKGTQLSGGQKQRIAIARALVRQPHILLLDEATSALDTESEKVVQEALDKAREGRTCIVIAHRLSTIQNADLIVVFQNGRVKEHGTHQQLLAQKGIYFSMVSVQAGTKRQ

MDCK-MDR1 [33] = experiment: Anticancer against dog MDCK-MDR1 cells assessed as reduction in cell viability at 50 uM incubated for 48 hrs by MTT assay; assay type: functional, Canis lupus familiaris

T1 sequence (Q99720 whole entry): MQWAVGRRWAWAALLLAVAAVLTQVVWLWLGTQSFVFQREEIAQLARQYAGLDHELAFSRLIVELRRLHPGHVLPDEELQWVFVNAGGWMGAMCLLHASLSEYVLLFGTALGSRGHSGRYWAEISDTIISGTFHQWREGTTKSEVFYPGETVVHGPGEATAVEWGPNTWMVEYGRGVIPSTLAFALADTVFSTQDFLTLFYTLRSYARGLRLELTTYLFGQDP
D(2) dopamine receptor, sequence (P14416 whole entry): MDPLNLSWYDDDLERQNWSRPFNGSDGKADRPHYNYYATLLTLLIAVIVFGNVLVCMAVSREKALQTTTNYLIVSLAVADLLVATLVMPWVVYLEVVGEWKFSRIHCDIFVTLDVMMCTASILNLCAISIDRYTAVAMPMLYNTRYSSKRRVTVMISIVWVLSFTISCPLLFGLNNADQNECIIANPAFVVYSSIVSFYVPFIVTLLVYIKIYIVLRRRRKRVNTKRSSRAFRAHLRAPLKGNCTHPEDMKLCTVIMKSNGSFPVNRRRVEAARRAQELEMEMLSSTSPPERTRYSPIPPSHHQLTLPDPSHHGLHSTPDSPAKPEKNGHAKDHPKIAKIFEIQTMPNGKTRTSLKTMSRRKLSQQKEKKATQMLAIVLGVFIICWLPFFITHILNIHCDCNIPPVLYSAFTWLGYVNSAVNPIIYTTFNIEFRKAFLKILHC

SMILES: c1ccc(CC2CCN(CC3CSC4(CCCCC4)S3)CC2)cc1 (stereo not given)
IC50 (SK-MEL-28 [10]): 52000 nM
Ki [11]: 19.5 nM
Ki [12]: 537 nM
IC50 (SK-MEL-28 [13]): 22000 nM

SMILES: CN1C(=O)CCc2cc(CNC(C)(C)[C@@H](O)c3ccccc3)ccc21
Ki [14]: > 1000 nM
Ki [15]: 4 nM

SMILES: C/C(=C\CN1CCN(Cc2ccccc2)CC1)c1ccc2ccccc2c1
Activity (RPMI-8226 [16]): 65%
Activity [17]: 34%

SMILES: C/C(=C\CN1CCN(Cc2ccc(C(F)(F)F)cc2)CC1)c1ccccc1
IC50 [19]: 19000 nM
IC50 [20]: 22300 nM
IC50 ([21]; Homo sapiens, U-87 MG, 24 h): 28300 nM
IC50 ([21]; u-87mg atcc): 22300 nM

SMILES: O=c1sc2cc(CCCF)ccc2n1CCN1CCCCCC1
Ki [1]: 0.0025 nM

SMILES: COc1ccc(/C(C)=C/CN2CCN(Cc3ccc(C(F)(F)F)cc3)CC2)cc1
IC50 [19]: 20600 nM
IC50 [20]: 24100 nM
IC50 ([21]; Homo sapiens, U-87 MG, 24 h): 27600 nM
IC50 ([21]; u-87mg atcc): 24100 nM

SMILES: OC(CCCN1CCC(O)(c2ccc(Cl)cc2)CC1)c1ccc(F)cc1 (racemic) [HYDROXYHALOPERIDOL]
Activity (MCF7 [27]): 98%

SMILES: O=C(CCCN1CCCN(c2ccc(Cl)cc2)CC1)c1ccc(F)cc1
Activity (MDA-MB-231 [28]): 49%
Activity (MDA-MB-231 [29]): 95%

SMILES: C/C(=C\CN1CCN(C(=O)C2CCCC2)CC1)c1ccccc1
IC50 [19]: 11200 nM
IC50 [20]: 39000 nM
IC50 ([21]; Homo sapiens, U-87 MG, 24 h): 39000 nM

SMILES: COc1ccc(C)cc1NC(=O)OC1CC2CCCC(C1)N2CCCCCCCCCCN (stereo not given)
Ki [15]: 7.7 nM

SMILES: CCN(C/C=C\c1ccc(C2CCCCC2)c(Cl)c1)C1CCCCC1
Ki [14]: 2 nM
IC50 [15]: 45 nM

SMILES: C1=C(c2c[nH]c3ncccc23)CCN(CCCc2ccccc2)C1
Ki [14]: 29 nM

SMILES: CCCN(CCC)CCc1ccc(OC)c(OCCc2ccccc2)c1
Ki [5]: 170 nM

Continued, in another order:

Ki (D(2) dopamine receptor): 10000 nM
Ki [1]: 17 nM
SMILES: CCCN1CCC(c2cccc(S(C)(=O)=O)c2)CC1 [PRIDOPIDINE]

Ki [2]: 43 nM
Ki [3]: 73 nM
IC50 (MCF7 [4]): 8830 nM
SMILES: OCC[C@H]1CN(CC2CCCCC2)CCN1Cc1ccc(-c2ccccc2)cc1
IC50 5637: 10500 nM
IC50 (A-427): 9250 nM

Ki [5]: 25.2 nM
Ki [6]: 1.7 nM
SMILES: O=C(NC1CCN(Cc2ccccc2)CC1)c1ccc(I)cc1

Ki [5]: 1380 nM
Ki [7]: 0.08 nM
SMILES: CCCN1CCC=C(c2cc(-c3ccc(C)cc3)no2)C1

Ki [8]: 36 nM
Ki [9]: 2.4 nM
SMILES: CCCCCCNCC[C@H]1CCC[C@@H](c2ccccc2)O1

Ki [2]: 39 nM
Ki [3]: 38 nM
IC50 (MCF7 [4]): > 20000 nM
SMILES: OCC[C@@H]1CN(CC2CCCCC2)CCN1Cc1ccc(-c2ccccc2)cc1
IC50 5637: 6570 nM
IC50 (A-427): 3460 nM

Ki [8]: 57 nM
Ki [9]: 0.95 nM
SMILES: CCCCCCNCC[C@@H]1CCC[C@H](c2ccccc2)O1

Ki [18]: 7.53 nM
SMILES: O=C(CN1CCC(CN2Cc3ccccc3C2=O)CC1)c1ccc(F)cc1 [ROLUPERIDONE]

Ki [8]: 285 nM
Ki [9]: 16 nM
SMILES: CCCCCCCNCCC1CCN(C)C(c2ccccc2)C1 (stereo not given)

Ki [22]: 206 nM
Ki [1]: 11.8 nM
SMILES: CCN(CC)CCNC(=O)c1ccc(OC)c([123I])c1

Ki [23]: 0.9 nM
IC50 (RPMI-8226 [25]): 8530 nM
Ki [2]: 37 nM
Ki [3]: 14 nM
Ki [26]: 7.5 nM
IC50 (MCF7 [4]): 9050 nM
SMILES: CCN1CCN(Cc2cccc3ccccc23)[C@H](CCO)C1
IC50 5637: 4790 nM
Activity (RPMI-8226 [24]): 32%
IC50 (A-427): 5020 nM

Ki [23]: 1.9 nM
IC50 (RPMI-8226 [25]): 1290 nM
Ki [2]: 16 nM
Ki [3]: 26 nM
Ki [26]: 29 nM
IC50 (MCF7 [4]): 9770 nM
SMILES: CCN1CCN(Cc2cccc3ccccc23)[C@@H](CCO)C1
IC50 5637: 3650 nM
IC50 (A-427): 9120 nM

IC50 (SK-MEL-28 [10]): 50000 nM
Ki [11]: 75.9 nM
Ki [12]: 6.16 nM
IC50 (SK-MEL-28 [13]): 38000 nM
SMILES: c1ccc(CN2CCN(CC3CSC4(CCCCC4)S3)CC2)cc1 (stereo not given)

Ki [22]: 2 nM
Ki [1]: 23.9 nM
SMILES: COc1cc2c(cc1OC)CN(CCCCNC(=O)c1cc(C)ccc1OCC[18F])CC2

EC50 (PC-3): 31300 nM
Ki [8]: 7.92 nM
EC50 (SK-N-SH): 32500 nM
EC50 [32]: 800 nM
Ki [9]: 0.26 nM
SMILES: COc1cccc(OC)c1[C@H]1CC[C@@H](N2CCN(C3CCCCC3)CC2)CC1
Activity (MDCK-MDR1 [30]): 70%
Activity (MDCK-MDR1 [31]): 90%
Activity (MDCK-MDR1 [33]): 50%

EC50 (PC-3): 40600 nM
Ki [8]: 14.1 nM
EC50 (SK-N-SH): 12100 nM
EC50 [32]: 7300 nM
Ki [9]: 0.63 nM
SMILES: Fc1cccc(F)c1[C@H]1CC[C@@H](N2CCN(C3CCCCC3)CC2)CC1

Ki [5]: 32100 nM
SMILES: O=C(OCCN1CCOCC1)C1(c2ccccc2)CCCCC1

— ChEMBL document CHEMBL5223132, “Structure-activity relationships of mixed σ1R/σ2R ligands with antiproliferative and anticancer effects” (Bioorg Med Chem, 2022)
